Tests used:
Experiment in all cases: Bliss excess, mean over the matrix (fraction); higher = more synergy
[1] = tested on: KYSE-450 (Esophageal Squamous Cell Carcinoma)
In short: (§1)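 After 24 hours at 37°C and 5% CO2 in 1536-well plates, cells in DMEM/F12 or RPMI plus 10% FBS received two-drug dose matrices for 72 hours. Viability came from CellTiter-Glo 2.0 luminescence and was scaled as inhibition, anchored at 0 by vehicle wells and at 1 by blank wells. Combination Emax is taken as the second-highest inhibition in the matrix, and Bliss excess as the observed combination effect less EA + EB − EA·EB, with EA and EB the single-agent effects.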

[2] = tested on: RF-48 (B-Cell Non-Hodgkin's Lymphoma)
In short: as §1

[3] = tested on: NCI-H727 (Other Solid Carcinomas)
In short: as §1

[4] = tested on: KARPAS-299 (T-Cell Non-Hodgkin's Lymphoma)
In short: as §1

ACHN (Kidney Carcinoma) = tested on: ACHN (Kidney Carcinoma)
In short: as §1

[5] = tested on: EoL-1-cell (Acute Myeloid Leukemia)
In short: as §1

UACC-62 (Melanoma) = tested on: UACC-62 (Melanoma)
In short: as §1

TK10 (Kidney Carcinoma) = tested on: TK10 (Kidney Carcinoma)
In short: as §1

[6] = tested on: AMO-1 (Plasma Cell Myeloma)
In short: as §1

[7] = tested on: Caov-4 (Ovarian Carcinoma)
In short: as §1

EW-24 (Ewing's Sarcoma) = tested on: EW-24 (Ewing's Sarcoma)
In short: as §1

D-263MG (Glioblastoma) = tested on: D-263MG (Glioblastoma)
In short: as §1

YH-13 (Glioblastoma) = tested on: YH-13 (Glioblastoma)
In short: as §1

TGW (Neuroblastoma) = tested on: TGW (Neuroblastoma)
In short: as §1

[8] = tested on: Ca9-22 (Head and Neck Carcinoma)
In short: as §1

NB69 (Neuroblastoma) = tested on: NB69 (Neuroblastoma)
In short: as §1

Structure (SMILES)	Bliss excess [1]	Bliss excess [2]	Bliss excess [3]	Bliss excess [4]	Bliss excess (ACHN (Kidney Carcinoma))	Bliss excess [5]	Bliss excess (UACC-62 (Melanoma))	Bliss excess (TK10 (Kidney Carcinoma))	Bliss excess [6]	Bliss excess [7]	Bliss excess (EW-24 (Ewing's Sarcoma))	Bliss excess (D-263MG (Glioblastoma))	Bliss excess (YH-13 (Glioblastoma))	Bliss excess (TGW (Neuroblastoma))	Bliss excess [8]	Bliss excess (NB69 (Neuroblastoma))
O=C(c1cc(Cc2n[nH]c(=O)c3ccccc23)ccc1F)N1CCN(C(=O)C2CC2)CC1 [Olaparib] + CC1(C)CCC(CN2CCN(c3ccc(C(=O)NS(=O)(=O)c4ccc(NCC5CCOCC5)c([N+](=O)[O-])c4)c(Oc4cnc5[nH]ccc5c4)c3)CC2)=C(c2ccc(Cl)cc2)C1 [Venetoclax] (first compound max 10 µM, 7x7, partner max 1 µM)	-0.0499	0.118	-0.0383	0.0277	-0.0214	0.0698	-0.007	-0.0727	-0.0074	-0.032	-0.0087	-0.0659	-0.0207	-0.0225	0.0323	0.067
Cc1c2c(nn1C)CSCc1cc(n(C)n1)CSc1cc(c3ccccc3c1)OCCCc1c(C(=O)O)n(C)c3c-2c(Cl)ccc13 [AZD5991] + CC(=O)O[C@H]1C(=O)[C@@]2(C)[C@H]([C@H](OC(=O)c3ccccc3)[C@]3(O)C[C@H](OC(=O)[C@H](O)[C@@H](NC(=O)c4ccccc4)c4ccccc4)C(C)=C1C3(C)C)[C@]1(OC(C)=O)CO[C@@H]1C[C@@H]2O [Paclitaxel] (first compound max 1 µM, 7x7, partner max 3 µM)	0.0363	-0.0407	-0.025	-0.0693	-0.0038	-0.0041	0.115	-0.0402	0.0096	0.0995	0.0289	0.206	0.0246	-0.0235	0.0065	0.027
O=C(c1cc(Cc2n[nH]c(=O)c3ccccc23)ccc1F)N1CCN(C(=O)C2CC2)CC1 [Olaparib] + COc1nnc2ccc(N3CCC(c4ccc(OCCN5CCN(C)C(=O)[C@H]5C)cc4)CC3)nn12 [AZD5153] (first compound max 10 µM, 7x7, partner max 1 µM)	-0.0606	-0.0374	-0.0452	-0.0654	-0.0367	-0.0384	0.0387	-0.0301	-0.0334	-0.0634	-0.0469	-0.057	-0.0114	-0.054	-0.0495	0.0035
C[C@@H](Oc1cc(-c2cnn(C3CCNCC3)c2)cnc1N)c1c(Cl)ccc(F)c1Cl [Crizotinib] + CC1=C(C(=CC=C1)Cl)NC(=O)C2=CN=C(S2)NC3=CC(=NC(=N3)C)N4CCN(CC4)CCO [Dasatinib] (first compound max 10 µM, 7x7, partner max 2 µM)	0.0276	-0.119	-0.0009	-0.0263	0.0041	0.0101	-0.0656	0.0333	-0.0368	-0.0441	-0.0154	0.0932	0.107	-0.0593	0.0635	0.0051
C=CCn1c(=O)c2cnc(Nc3ccc(N4CCN(C)CC4)cc3)nc2n1-c1cccc(C(C)(C)O)n1 [AZD1775] + CCc1c2c(nc3ccc(O)cc13)-c1cc3c(c(=O)n1C2)COC(=O)[C@]3(O)CC [SN-38] (first compound max 1 µM, partner max 0.3 µM)	0.0358	-0.0404	-0.0018	-0.042	-0.0634	0.0324	-0.0497	-0.0717	-0.052	-0.0557	-0.113	0.0132	-0.0262	-0.0592	0.0045	0.0239
C[C@@H](Oc1cc(-c2cnn(C3CCNCC3)c2)cnc1N)c1c(Cl)ccc(F)c1Cl [Crizotinib] + Cn1cnc2c(F)c(Nc3ccc(Br)cc3Cl)c(C(=O)NOCCO)cc21 [Selumetinib] (first compound max 10 µM, 7x7, partner max 10 µM)	-0.0241	-0.0548	-0.0226	-0.032	0.0277	0.0352	-0.0229	-0.0705	0.0122	-0.025	-0.0464	-0.0866	-0.0111	-0.0252	-0.0286	-0.0283
Cc1c2c(nn1C)CSCc1cc(n(C)n1)CSc1cc(c3ccccc3c1)OCCCc1c(C(=O)O)n(C)c3c-2c(Cl)ccc13 [AZD5991] + CS(=O)(=O)CCNCc1ccc(-c2ccc3ncnc(Nc4ccc(OCc5cccc(F)c5)c(Cl)c4)c3c2)o1 [Lapatinib] (first compound max 1 µM, 7x7, partner max 10 µM)	-0.0108	-0.0917	-0.0013	0.0227	0.0028	–	-0.0376	-0.0567	0.0149	0.0835	–	-0.0735	–	-0.0015	0.0614	0.021
C[C@@H](Nc1cc(F)cc(F)c1)c1cc(C(=O)N(C)C)cc2c(=O)cc(N3CCOCC3)oc12 [AZD8186] + CC(=O)c1c(C)c2cnc(Nc3ccc(N4CCNCC4)cn3)nc2n(C2CCCC2)c1=O [Palbociclib] (first compound max 10 µM, 7x7, partner max 10 µM)	-0.0404	0.0054	0.0923	0.0912	0.0335	0.0996	0.0303	-0.0069	0.126	0.0078	0.0598	0.0181	0.0183	-0.0397	0.021	-0.0111
